# Test results as given in ChEMBL document CHEMBL4339213, “Microwave-assisted synthesis and in vitro stability of N-benzylamide non-steroidal anti-inflammatory drug conjugates for CNS delivery” (Bioorg Med Chem Lett, 2019).
# What was measured:
# [1] = Drug metabolism in human plasma assessed as release of the NSAID by LC-MS analysis; assay type: ADME, cell-free
# [2] = Half life in human plasma at 125 uM by HPLC analysis; assay type: ADME, cell-free
# [3] = Half life in pH 7.4 PBS at 125 uM incubated at 37 degC by HPLC analysis; assay type: physicochemical
# [4] = Half life in human plasma; assay type: ADME, cell-free
# [5] = Half life in human plasma at 100 uM by HPLC analysis; assay type: ADME, cell-free
Drug metabolism [1],half-life at 125 µM [2] [min],half-life at 125 µM [3] [min],half-life [4] [min],half-life at 100 µM [5] [min],Compound
Metabolite_Detected,4.7,> 2880,–,–,COc1ccc2cc([C@H](C)C(=O)OCCC(=O)NCc3ccccc3)ccc2c1
Metabolite_Detected,–,–,> 216,–,COc1ccc2c(c1)c(CC(=O)OCCC(=O)NCc1ccccc1)c(C)n2C(=O)c1ccc(Cl)cc1
Metabolite_Detected,–,> 2880,–,110,CC(C(=O)OCCC(=O)NCc1ccccc1)c1ccc(-c2ccccc2)c(F)c1 (stereo not given)
Metabolite_Detected,–,> 2880,–,–,CC(C)Cc1ccc(C(C)C(=O)OCCC(=O)NCc2ccccc2)cc1 (stereo not given)
